Test results as given in patent publication US20260242419A1, “A CYCLIC PEPTIDE FOR TRAPPING INTERLEUKIN-1 BETA” (Merck Sharp & Dohme LLC, priority 2023, published 2026).
Starred links: 1 amine or outer side, 2 acyl side, 3 side chain; linkers in the order of their positions; H or OH if unused. Non-standard residues stand in square brackets, D forms with d. Residues, ends and D or L forms follow the SMILES beside them. Phe(4-(cis-4-COOH-cHex)) = N[C@@H](Cc1ccc([C@H]2CC[C@@H](C(=O)O)CC2)cc1)C(=O)O; dPro(4R-(4-pyridylmethyl)) = O=C(O)[C@H]1C[C@@H](Cc2ccncc2)CN1; X17 = CN(C)C(=O)c1ccc(-c2ccc(C[C@H](N[*:1])C(=O)[*:2])cc2)cc1; Trp(βS-Me,4-F) = C[C@@H](c1c[nH]c2cccc(F)c12)[C@H](N)C(=O)O; Bip(4'-CONH2) = NC(=O)c1ccc(-c2ccc(C[C@H](N)C(=O)O)cc2)cc1; Bip(4'-COOH) = N[C@@H](Cc1ccc(-c2ccc(C(=O)O)cc2)cc1)C(=O)O; Ala(1-bicyclo(1.1.1)pentyl) = N[C@@H](CC12CC(C1)C2)C(=O)O; dPro(4R-Bzl(4-F)) = O=C(O)[C@H]1C[C@@H](Cc2ccc(F)cc2)CN1; dPro(3S-(4-F-Bn)) = O=C(O)[C@@H]1NCC[C@@H]1Cc1ccc(F)cc1; Bip(4'-Cl) = N[C@@H](Cc1ccc(-c2ccc(Cl)cc2)cc1)C(=O)O; Ala(pyrimidin-5-yl) = N[C@@H](Cc1cncnc1)C(=O)O; Phe(4-COOH) = N[C@@H](Cc1ccc(C(=O)O)cc1)C(=O)O; Bip = N[C@@H](Cc1ccc(-c2ccccc2)cc1)C(=O)O; Pro(cis-4-F) = O=C(O)[C@@H]1C[C@H](F)CN1; X6 = O=C([C@H](Cc1ccncn1)N[*:1])[*:2]; AEF = NCCOc1ccc(C[C@H](N)C(=O)O)cc1; d(αMeD) = C[C@@](N)(CC(=O)O)C(=O)O; 4Pal = N[C@@H](Cc1ccncc1)C(=O)O; aThr = C[C@H](O)[C@H](N)C(=O)O; d(αMeS) = C[C@@](N)(CO)C(=O)O; Dab = NCC[C@H](N)C(=O)O; Aib = CC(C)(N)C(=O)O; Sar = CNCC(=O)O

biological target: T1, IL-1β (Homo sapiens, UniProt P01584); experiment: IL-6 assay in MRC5 cells: inhibition of IL-1β induced IL-6 secretion (AlphaLISA); format: cell-based; details: inhibition of IL-1β induced IL-6 secretion in MRC5 cells; read-out: MRC5 IC50
T1 construct: purchased BioLegend 579404
Method in brief: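 Compound was pre-incubated 1 h at ambient temperature with recombinant human IL-1β at 2λ EC80 before adding human lung fibroblast MRC5 cells (3000/well) in EMEM with 0.025% BSA. After overnight culture at 37 °C, 5% CO2, secreted IL-6 in conditioned medium was measured by AlphaLISA; IC50 from 4-parameter logistic fits.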

T1 sequence (P01584 117-269): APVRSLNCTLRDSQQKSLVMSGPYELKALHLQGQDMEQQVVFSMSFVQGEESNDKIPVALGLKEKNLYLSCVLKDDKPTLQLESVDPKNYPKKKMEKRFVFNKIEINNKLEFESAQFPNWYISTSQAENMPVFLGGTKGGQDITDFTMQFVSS

SMILES | IC50
C[C@@H](c1c[nH]c2cccc(F)c12)[C@@H]1NC(=O)[C@@H]2C[C@H](F)CN2C(=O)CNC(=O)[C@H](Cc2ccc(C(=O)O)cc2)NC(=O)[C@H](CC23CC(C2)C3)NC(=O)[C@H](Cc2ccc([C@H]3CC[C@@H](C(=O)O)CC3)cc2)NC(=O)[C@H]2C[C@@H](Cc3ccncc3)CN2C(=O)CNC(=O)[C@H](CCN)NC(=O)[C@H](CCC(N)=O)NC(=O)[C@H](Cc2cncnc2)NC(=O)[C@@](C)(CC(=O)O)NC(=O)[C@H](Cc2c[nH]c3ccccc23)NC(=O)[C@H](CO)NC(=O)C(C)(C)NC1=O [Example 335] (cyclo([Phe(4-(cis-4-COOH-cHex))][Ala(1-bicyclo(1.1.1)pentyl)][Phe(4-COOH)]G[Pro(cis-4-F)][Trp(βS-Me,4-F)][Aib]SW[d(αMeD)][Ala(pyrimidin-5-yl)]Q[Dab]G[dPro(4R-(4-pyridylmethyl))])) | 22 pM
CC(=O)NCCOc1ccc(C[C@@H]2NC(=O)[C@H]3C[C@@H](Cc4ccncc4)CN3C(=O)CNC(=O)[C@H](CCN)NC(=O)[C@H](CCC(N)=O)NC(=O)[C@H](Cc3ccccc3)NC(=O)C(C)(C)NC(=O)[C@H](Cc3c[nH]c4ccccc34)NC(=O)[C@H](CCC(=O)O)NC(=O)C(C)(C)NC(=O)[C@H]([C@@H](C)c3c[nH]c4cccc(F)c34)NC(=O)[C@@H]3C[C@H](F)CN3C(=O)CNC(=O)[C@H](Cc3ccc(C(=O)O)cc3)NC(=O)[C@H](Cc3ccncc3)NC2=O)cc1 [Example 336] (cyclo([AEF](Ac)[4Pal][Phe(4-COOH)]G[Pro(cis-4-F)][Trp(βS-Me,4-F)][Aib]EW[Aib]FQ[Dab]G[dPro(4R-(4-pyridylmethyl))])) | 23 pM
C[C@H](O)[C@@H]1NC(=O)[C@@](C)(CC(=O)O)NC(=O)[C@H](Cc2c[nH]c3ccccc23)NC(=O)[C@H](CO)NC(=O)C(C)(C)NC(=O)[C@H]([C@@H](C)c2c[nH]c3cccc(F)c23)NC(=O)[C@@H]2C[C@H](F)CN2C(=O)CNC(=O)[C@H](Cc2ccc(C(=O)O)cc2)NC(=O)[C@H](Cc2ccncc2)NC(=O)[C@H](Cc2ccc(-c3ccc(C(=O)O)cc3)cc2)NC(=O)[C@H]2C[C@@H](Cc3ccncc3)CN2C(=O)CN(C)C(=O)[C@H](CCN)NC(=O)[C@H](CCC(N)=O)NC1=O [Example 337] (cyclo([Bip(4'-COOH)][4Pal][Phe(4-COOH)]G[Pro(cis-4-F)][Trp(βS-Me,4-F)][Aib]SW[d(αMeD)][aThr]Q[Dab][Sar][dPro(4R-(4-pyridylmethyl))])) | 22 pM
C[C@@H](c1c[nH]c2cccc(F)c12)[C@@H]1NC(=O)[C@@H]2C[C@H](F)CN2C(=O)CNC(=O)[C@H](Cc2ccc(C(=O)O)cc2)NC(=O)[C@H](Cc2ccncc2)NC(=O)[C@H](Cc2ccc(-c3ccc(C(=O)N(C)C)cc3)cc2)NC(=O)[C@H]2C[C@@H](Cc3ccncc3)CN2C(=O)CNC(=O)[C@H](CCN)NC(=O)[C@H](CCC(N)=O)NC(=O)[C@H](Cc2cncnc2)NC(=O)[C@@](C)(CO)NC(=O)[C@H](Cc2c[nH]c3ccccc23)NC(=O)[C@H](CO)NC(=O)C(C)(C)NC1=O [Example 338] (cyclo([X17][4Pal][Phe(4-COOH)]G[Pro(cis-4-F)][Trp(βS-Me,4-F)][Aib]SW[d(αMeS)][Ala(pyrimidin-5-yl)]Q[Dab]G[dPro(4R-(4-pyridylmethyl))])) | 18 pM
C[C@@H](c1c[nH]c2cccc(F)c12)[C@@H]1NC(=O)[C@@H]2C[C@H](F)CN2C(=O)CNC(=O)[C@H](Cc2ccc(C(=O)O)cc2)NC(=O)[C@H](Cc2ccncc2)NC(=O)[C@H](Cc2ccc(-c3ccc(C(N)=O)cc3)cc2)NC(=O)[C@H]2C[C@@H](Cc3ccncc3)CN2C(=O)CNC(=O)[C@H](CCN)NC(=O)[C@H](CCC(N)=O)NC(=O)[C@H](Cc2cncnc2)NC(=O)[C@@](C)(CO)NC(=O)[C@H](Cc2c[nH]c3ccccc23)NC(=O)[C@H](CO)NC(=O)C(C)(C)NC1=O [Example 339] (cyclo([Bip(4'-CONH2)][4Pal][Phe(4-COOH)]G[Pro(cis-4-F)][Trp(βS-Me,4-F)][Aib]SW[d(αMeS)][Ala(pyrimidin-5-yl)]Q[Dab]G[dPro(4R-(4-pyridylmethyl))])) | 24 pM
C[C@@H](c1c[nH]c2cccc(F)c12)[C@@H]1NC(=O)[C@@H]2C[C@H](F)CN2C(=O)CNC(=O)[C@H](Cc2ccc(C(=O)O)cc2)NC(=O)[C@H](Cc2ccncc2)NC(=O)[C@H](Cc2ccc(-c3ccccc3)cc2)NC(=O)[C@H]2C[C@@H](Cc3ccncc3)CN2C(=O)CNC(=O)[C@H](CCN)NC(=O)[C@H](CCC(N)=O)NC(=O)[C@H](Cc2cncnc2)NC(=O)[C@@](C)(CO)NC(=O)[C@H](Cc2c[nH]c3ccccc23)NC(=O)[C@H](CO)NC(=O)C(C)(C)NC1=O [Example 340] (cyclo([Bip][4Pal][Phe(4-COOH)]G[Pro(cis-4-F)][Trp(βS-Me,4-F)][Aib]SW[d(αMeS)][Ala(pyrimidin-5-yl)]Q[Dab]G[dPro(4R-(4-pyridylmethyl))])) | 21 pM
C[C@@H](c1c[nH]c2cccc(F)c12)[C@@H]1NC(=O)[C@@H]2C[C@H](F)CN2C(=O)CNC(=O)[C@H](Cc2ccc(C(=O)O)cc2)NC(=O)[C@H](CC23CC(C2)C3)NC(=O)[C@H](Cc2ccc(-c3ccc(C(=O)N(C)C)cc3)cc2)NC(=O)[C@H]2C[C@@H](Cc3ccncc3)CN2C(=O)CNC(=O)[C@H](CCN)NC(=O)[C@H](CCC(N)=O)NC(=O)[C@H](Cc2cncnc2)NC(=O)[C@@](C)(CC(=O)O)NC(=O)[C@H](Cc2c[nH]c3ccccc23)NC(=O)[C@H](CO)NC(=O)C(C)(C)NC1=O [Example 341] (cyclo([X17][Ala(1-bicyclo(1.1.1)pentyl)][Phe(4-COOH)]G[Pro(cis-4-F)][Trp(βS-Me,4-F)][Aib]SW[d(αMeD)][Ala(pyrimidin-5-yl)]Q[Dab]G[dPro(4R-(4-pyridylmethyl))])) | 24 pM
C[C@@H](c1c[nH]c2cccc(F)c12)[C@@H]1NC(=O)[C@@H]2C[C@H](F)CN2C(=O)CNC(=O)[C@H](Cc2ccc(C(=O)O)cc2)NC(=O)[C@H](CC23CC(C2)C3)NC(=O)[C@H](Cc2ccc(-c3ccc(C(N)=O)cc3)cc2)NC(=O)[C@H]2C[C@@H](Cc3ccncc3)CN2C(=O)CNC(=O)[C@H](CCN)NC(=O)[C@H](CCC(N)=O)NC(=O)[C@H](Cc2cncnc2)NC(=O)[C@@](C)(CC(=O)O)NC(=O)[C@H](Cc2c[nH]c3ccccc23)NC(=O)[C@H](CO)NC(=O)C(C)(C)NC1=O [Example 342] (cyclo([Bip(4'-CONH2)][Ala(1-bicyclo(1.1.1)pentyl)][Phe(4-COOH)]G[Pro(cis-4-F)][Trp(βS-Me,4-F)][Aib]SW[d(αMeD)][Ala(pyrimidin-5-yl)]Q[Dab]G[dPro(4R-(4-pyridylmethyl))])) | 22 pM
C[C@@H](c1c[nH]c2cccc(F)c12)[C@@H]1NC(=O)[C@@H]2C[C@H](F)CN2C(=O)CNC(=O)[C@H](Cc2ccc(C(=O)O)cc2)NC(=O)[C@H](CC23CC(C2)C3)NC(=O)[C@H](Cc2ccc(-c3ccccc3)cc2)NC(=O)[C@H]2C[C@@H](Cc3ccncc3)CN2C(=O)CNC(=O)[C@H](CCN)NC(=O)[C@H](CCC(N)=O)NC(=O)[C@H](Cc2cncnc2)NC(=O)[C@@](C)(CC(=O)O)NC(=O)[C@H](Cc2c[nH]c3ccccc23)NC(=O)[C@H](CO)NC(=O)C(C)(C)NC1=O [Example 343] (cyclo([Bip][Ala(1-bicyclo(1.1.1)pentyl)][Phe(4-COOH)]G[Pro(cis-4-F)][Trp(βS-Me,4-F)][Aib]SW[d(αMeD)][Ala(pyrimidin-5-yl)]Q[Dab]G[dPro(4R-(4-pyridylmethyl))])) | 26 pM
C[C@@H](c1c[nH]c2cccc(F)c12)[C@@H]1NC(=O)[C@@H]2C[C@H](F)CN2C(=O)CNC(=O)[C@H](Cc2ccc(C(=O)O)cc2)NC(=O)[C@H](Cc2ccncc2)NC(=O)[C@H](Cc2ccc(-c3ccc(Cl)cc3)cc2)NC(=O)[C@H]2C[C@@H](Cc3ccncc3)CN2C(=O)CNC(=O)[C@H](CCN)NC(=O)[C@H](CCC(N)=O)NC(=O)[C@H](Cc2cncnc2)NC(=O)[C@@](C)(CC(=O)O)NC(=O)[C@H](Cc2c[nH]c3ccccc23)NC(=O)[C@H](CO)NC(=O)C(C)(C)NC1=O [Example 344] (cyclo([Bip(4'-Cl)][4Pal][Phe(4-COOH)]G[Pro(cis-4-F)][Trp(βS-Me,4-F)][Aib]SW[d(αMeD)][Ala(pyrimidin-5-yl)]Q[Dab]G[dPro(4R-(4-pyridylmethyl))])) | 22 pM
C[C@@H](c1c[nH]c2cccc(F)c12)[C@@H]1NC(=O)[C@@H]2C[C@H](F)CN2C(=O)CNC(=O)[C@H](Cc2ccc(C(=O)O)cc2)NC(=O)[C@H](Cc2ccncc2)NC(=O)[C@H](Cc2ccc(-c3ccc(C(=O)O)cc3)cc2)NC(=O)[C@H]2C[C@@H](Cc3ccc(F)cc3)CN2C(=O)CNC(=O)[C@H](CCN)NC(=O)[C@H](CCC(N)=O)NC(=O)[C@H](Cc2ccncn2)NC(=O)C(C)(C)NC(=O)[C@H](Cc2c[nH]c3ccccc23)NC(=O)[C@H](CCC(=O)O)NC(=O)C(C)(C)NC1=O [Example 345] (cyclo([Bip(4'-COOH)][4Pal][Phe(4-COOH)]G[Pro(cis-4-F)][Trp(βS-Me,4-F)][Aib]EW[Aib][X6]Q[Dab]G[dPro(4R-Bzl(4-F))])) | 12 pM
C[C@@H](c1c[nH]c2cccc(F)c12)[C@@H]1NC(=O)[C@@H]2C[C@H](F)CN2C(=O)CNC(=O)[C@H](Cc2ccc(C(=O)O)cc2)NC(=O)[C@H](Cc2ccncc2)NC(=O)[C@H](Cc2ccc(-c3ccc(C(=O)O)cc3)cc2)NC(=O)[C@H]2[C@@H](Cc3ccc(F)cc3)CCN2C(=O)CNC(=O)[C@H](CCN)NC(=O)[C@H](CCC(N)=O)NC(=O)[C@H](Cc2cncnc2)NC(=O)C(C)(C)NC(=O)[C@H](Cc2c[nH]c3ccccc23)NC(=O)[C@H](CCC(=O)O)NC(=O)C(C)(C)NC1=O [Example 346] (cyclo([Bip(4'-COOH)][4Pal][Phe(4-COOH)]G[Pro(cis-4-F)][Trp(βS-Me,4-F)][Aib]EW[Aib][Ala(pyrimidin-5-yl)]Q[Dab]G[dPro(3S-(4-F-Bn))])) | 10 pM
